Data on 20 molecules can be found in patent US12030835B2, “Substituted amide compounds useful as farnesoid X receptor modulators” (BRISTOL-MYERS SQUIBB COMPANY, priority 2019, dated 2024).

In the assay the target is T1, human FXR (Homo sapiens, UniProt Q96RI1).
T1 construct: expressed in transfected cells
T1 sequence (Q96RI1 262-486 limits assumed): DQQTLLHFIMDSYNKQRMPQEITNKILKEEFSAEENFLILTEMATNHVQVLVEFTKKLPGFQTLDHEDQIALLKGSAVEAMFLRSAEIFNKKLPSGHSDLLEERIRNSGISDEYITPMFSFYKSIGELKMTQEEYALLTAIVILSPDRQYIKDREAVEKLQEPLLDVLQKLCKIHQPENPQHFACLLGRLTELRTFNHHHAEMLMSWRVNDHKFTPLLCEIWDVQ
As to the kind of experiment: transient human FXR/Gal4-luciferase reporter assay. In kind it is cell-based. The settings on record: Gal4-hFXR (ligand binding domain) fusion transiently transfected in HEK293 Gal4-luciferase reporter cells; overnight incubation; response as percentage of 8 μM GW-4064 control. How it is done:
A Gal4-hFXR fusion construct reporter system was used as the primary assay to characterize compound activity. A construct including 5 copies of the Gal4 promoter response element upstream of a firefly luciferase reporter cDNA was stably expressed in HEK293 cells. This reporter cell line was maintained in Dulbecco's Modified Eagle's medium (DMEM; Gibco) supplemented with 1% penicillin-streptomycin (P/S) solution, 500 μg/ml Zeocin and 10% charcoal/dextran-treated fetal bovine serum (cs-FBS) at 37° C. in a humidified 5% CO2 atmosphere. Another plasmid was constructed in which the human cytomegalovirus promoter in the pcDNA3.1 vector directs the expression of the cDNA encoding a fusion protein comprised of the DNA binding domain from the Gal4 transcription factor fused to the ligand binding domain from human FXR.
The day prior to transfection, the reporter cells in culture are detached from the plate with trypsin and plated into a T75 flask at a sufficient density to achieve approximately 90% confluence the next morning. The transfection reagents are prepared by separately diluting 25 μg of the pcDNA3.1-Gal4-FXR plasmid into 1.87 mL of Opti-MEM (Thermo-Fisher), and 40 μL of Lipofectamine 2000 (Thermo-Fisher) into 1.87 mL of Opti-MEM, and then adding the diluted DNA solution into the diluted Lipofectamine 2000 solution and incubating at room temperature for 15-20 minutes. The mixture is further diluted with 10 ml of a solution comprised of DMEM, 10% cs-FBS, and 1% P/S immediately prior to transferring to the cells. The maintenance culture media is aspirated from the cells and the final transfection mixture is added before the cells are incubated overnight at 37° C. in a humidified 5% CO2 atmosphere. This protocol can be scaled up, and the transiently transfected cells can be cryopreserved in an assay-ready format.
For compound testing, 100 nL of the compounds (serial dilutions in DMSO) are dispensed with an Echo acoustic dispenser (Labcyte) into the wells of a Corning/Costar clear bottom 384-well white plate. The transfected cells are harvested, counted, and diluted such that 10-25,000 cells in 25 μL are plated into each well of the 384-well compound assay plate. The compound-treated cells are incubated overnight at 37° C. in a humidified 5% CO2 atmosphere. The next morning 25 μL of Steady-Glo (Promega) are added to each well of the plate, the mixture is incubated for 15 min. with shaking, and luminescence is measured on an Envision (Perkin Elmer) plate reader.
On the technique in general: Reporter assays use an easily measured gene product as a stand-in for the process of interest.
Broadly, the EC50 is the concentration needed to bring the measured effect to its halfway point. Low readings indicate higher potency in that assay, high ones lower potency in that assay. On to `COC(=O)/C=C/c1cccc(N(CC23CCC(c4nc(C)no4)(CC2)CC3)C(=O)C2CCOCC2)c1` [Example 23, Methyl (E)-3-(3-(N-((4-(3-methyl-1,2,4-oxadiazol-5-yl)bicyclo[2.2.2]octan-1-yl)methyl)tetrahydro-2H-pyran-4-carboxamido)phenyl)acrylate], for which a half-maximal response (EC50) required 920 nM.
Molecule `COC(=O)/C=C/c1cccc(N(CC23CCC(c4nc(C)no4)(CC2)CC3)C(=O)C2CCCCCC2)c1` [Example 24, methyl (E)-3-(3-(N-((4-(3-methyl-1,2,4-oxadiazol-5-yl)bicyclo[2.2.2]octan-1-yl)methyl)cycloheptanecarboxamido)phenyl) acrylate] came in with a 50% effective concentration (EC50) of 150 nM.
With `COC(=O)/C=C/c1cccc(N(CC23CCC(c4nc(C)no4)(CC2)CC3)C(=O)C23CC(F)(C2)C3)c1` [Example 25, methyl (E)-3-(3-(3-fluoro-N-((4-(3-methyl-1,2,4-oxadiazol-5-yl)bicyclo[2.2.2]octan-1-yl)methyl)bicyclo[1.1.1]pentane-1-carboxamido)phenyl)acrylate] the figure was 123 nM.
With `COC(=O)/C=C/c1cccc(N(CC23CCC(c4nc(C)no4)(CC2)CC3)C(=O)C2CC(F)(F)C2)c1` [Example 26, methyl (E)-3-(3-(3,3-difluoro-N-((4-(3-methyl-1,2,4-oxadiazol-5-yl)bicyclo[2.2.2]octan-1-yl)methyl)cyclobutane-1-carboxamido)phenyl)acrylate] the figure was 302 nM.
Molecule `Cc1noc(C23CCC(CN(C(=O)C4CCCCC4)c4cccc(/C=C/C(=O)N(C)C)c4)(CC2)CC3)n1` [Example 27, (E)-N-(3-(3-(dimethylamino)-3-oxoprop-1-en-1-yl)phenyl)-N-((4-(3-methyl-1,2,4-oxadiazol-5-yl)bicyclo[2.2.2]octan-1-yl)methyl)cyclohexanecarboxamide] displayed an EC50 of 4460 nM.
On to `COC(=O)/C=C/c1cccc(N(CC23CCC(c4ccc(C5CC5)cc4)(CC2)CC3)C(=O)C2CC2)c1` [Example 28, Methyl (E)-3-(3-(N-((4-(4-cyclopropylphenyl)bicyclo[2.2.2]octan-1-yl)methyl)cyclopropanecarboxamido)phenyl)acrylate], for which the EC50 worked out at 947 nM.
Then `COC(=O)/C=C/c1cccc(N(CC23CCC(c4ccc(C5CC5)cc4)(CC2)CC3)C(=O)C2CCCCC2)c1` [Example 29, Methyl (E)-3-(3-(N-((4-(4-cyclopropylphenyl)bicyclo[2.2.2]octan-1-yl)methyl)cyclohexanecarboxamido)phenyl)acrylate], with 161 nM; and `COC(=O)C1=Cc2cccc(N(CC34CCC(c5ccc(C6CC6)cc5)(CC3)CC4)C(=O)C3CCCCC3)c2CC1` [Example 30, Methyl 5-(N-((4-(4-cyclopropylphenyl)bicyclo[2.2.2]octan-1-yl)methyl)cyclohexanecarboxamido)-3,4-dihydronaphthalene-2-carboxylate], with 195 nM; and `COC(=O)C1=Cc2cccc(N(CC34CCC(c5ccc(C6CC6)cc5)(CC3)CC4)C(=O)C3CC3)c2CC1` [Example 31, methyl 5-(N-((4-(4-cyclopropylphenyl)bicyclo[2.2.2]octan-1-yl)methyl)cyclopropanecarboxamido)-3,4-dihydronaphthalene-2-carboxylate], with 796 nM.
With `COC(=O)C1=Cc2cccc(N(CC34CCC(c5ccc(C6CC6)cc5)(CC3)CC4)C(=O)C(C)C)c2CC1` [Example 32, methyl 5-(N-((4-(4-cyclopropylphenyl)bicyclo[2.2.2]octan-1-yl)methyl)isobutyramido)-3,4-dihydronaphthalene-2-carboxylate] the figure was 466 nM; with `COC(=O)/C=C/c1cccc(N(CC23CCC(c4nc5ccccc5s4)(CC2)CC3)C(=O)C2CC2)c1` [Example 33, Methyl (E)-3-(3-(N-((4-(benzo[d]thiazol-2-yl)bicyclo[2.2.2]octan-1-yl)methyl)cyclopropanecarboxamido)phenyl)acrylate], 414 nM.
In turn, `COC(=O)/C=C/c1cccc(N(CC23CCC(c4nc5ccccc5s4)(CC2)CC3)C(=O)C2CCCCC2)c1` [Example 34, Methyl (E)-3-(3-(N-((4-(benzo[d]thiazol-2-yl)bicyclo[2.2.2]octan-1-yl)methyl)cyclohexanecarboxamido)phenyl)acrylate] registered an EC50 of 222 nM. Compared with the last molecule, the EC50 is about 1.9-fold lower.
Then `COc1ccc(C23CCC(CN(C(=O)C4CCCCC4)c4cccc(/C=C/c5nc(C)no5)c4)(CC2)CC3)cc1` [Example 35, (E)-N-((4-(4-methoxyphenyl)bicyclo[2.2.2]octan-1-yl)methyl)-N-(3-(2-(3-methyl-1,2,4-oxadiazol-5-yl)vinyl)phenyl)cyclohexanecarboxamide], with 446 nM; and `COC(=O)/C=C(\C)c1cccc(N(CC23CCC(c4ccc(C5CC5)cc4)(CC2)CC3)C(=O)C2CC2)c1` [Example 36, Methyl (E)-3-(3-(N-((4-(4-cyclopropylphenyl)bicyclo[2.2.2]octan-1-yl)methyl)cyclopropanecarboxamido)phenyl)but-2-enoate], with 1780 nM; and `COC(=O)/C=C(\C)c1cccc(N(CC23CCC(c4ccc(C5CC5)cc4)(CC2)CC3)C(=O)C2CCCCC2)c1` [Example 37, Methyl (E)-3-(3-(N-((4-(4-cyclopropylphenyl)bicyclo[2.2.2]octan-1-yl)methyl)cyclohexanecarboxamido)phenyl)but-2-enoate], with 498 nM.
With `COC(=O)/C=C/c1cccc(N(CC23CCC(c4ccc(C(C)C)cc4)(CC2)CC3)C(=O)C2CCCCC2)c1` [Example 38, Methyl (E)-3-(3-(N-((4-(4-isopropylphenyl)bicyclo[2.2.2]octan-1-yl)methyl)cyclohexanecarboxamido)phenyl)acrylate], the EC50 was found to be 196 nM. This EC50 lies about 2.5-fold lower than the previous one.
For `COC(=O)/C=C/c1cccc(N(CC23CCC(c4ccc(C(C)C)cc4)(CC2)CC3)C(=O)C2CC2)c1` [Example 39, Methyl (E)-3-(3-(N-((4-(4-isopropylphenyl)bicyclo[2.2.2]octan-1-yl)methyl)cyclopropanecarboxamido)phenyl)acrylate], the concentration giving a half-maximal response (EC50) turned out to be 1430 nM. Against the preceding molecule, the EC50 is about 7.3-fold higher.
With `COC(=O)C1=Cc2cccc(N(CC34CCC(c5nc(C)no5)(CC3)CC4)C(=O)C3CCCCC3)c2CC1` [Example 40, Methyl 5-(N-((4-(3-methyl-1,2,4-oxadiazol-5-yl)bicyclo[2.2.2]octan-1-yl)methyl)cyclohexanecarboxamido)-3,4-dihydronaphthalene-2-carboxylate] the figure was 1070 nM; with `COC(=O)/C=C/c1cccc(N(CC23CCC(c4nc(N5CCOCC5)no4)(CC2)CC3)C(=O)C2CCCCC2)c1` [Example 42, Methyl (E)-3-(3-(N-((4-(3-morpholino-1,2,4-oxadiazol-5-yl)bicyclo[2.2.2]octan-1-yl)methyl)cyclohexanecarboxamido)phenyl)acrylate], 118 nM; with `COC(=O)/C=C/c1cccc(N(CC23CCC(c4nc(C5CCOCC5)no4)(CC2)CC3)C(=O)C2CCCCC2)c1` [Example 43, Methyl (E)-3-(3-(N-((4-(3-(tetrahydro-2H-pyran-4-yl)-1,2,4-oxadiazol-5-yl)bicyclo[2.2.2]octan-1-yl)methyl)cyclohexanecarboxamido)phenyl)acrylate], 107 nM.
